Experimental data published in patent US20240398885A1, “FULL LIGHT REPAIR” (Coty Inc., priority 2021, published 2024).

Key:
[1] = system: normal human keratinocytes; experiment: Comet assay with T4 endonuclease V to detect cyclobutane pyrimidine dimers (CPD) after light exposure; assay type: cell-based; settings: UVB and visible light; creatine included in the compositions
Experimental: (§1) Experiments were carried out using the protocol discussed in Chamayou-Robert et al. Photodermatol Photoimmunol Photomed. 2021; 00:1-7. Briefly, experiments were performed on normal human keratinocytes. Cells were exposed to either UVB (280-315 nm), UVA (315-400 nm), visible light, blue light (400-500 nm), or infra-red (760 nm-1 mm) for a time to induce DNA damage. Cells were then treated with the compositions indicated in FIGS. 3(a), 3(b) and 4(a), 4(b) and 4(c), respectively and DNA damage was analyzed by using the comet assay (Wischermann et al. Mutat Res. 2007; 630:122-128; Jean et al. Photochem Photobiol. 2007; 74 (3): 417-423; Azqueta et al. Mutagenesis. 2013; 28:271-277; Chamayou-Robert et al. Photoderm Photoimmun. 2021; 00:1-7) with the use of specific enzymes, formamidopyrimidine DNA glycosylase (FPG) or T4 endonuclease V in order to detect oxidized DNA-bases and cyclobutane pyrimidine dimers (CPD) respectively.
(§2) Compositions comprising creatine in an amount of 0.5% w/w, Micrococcus Lysate in an amount of 0.0005% w/w and Arabidopsis Thaliana extract in an amount of 0.0005% w/w were tested in this example.

[2] = system: normal human keratinocytes; experiment: Comet assay with formamidopyrimidine DNA glycosylase (FPG) to detect oxidized DNA-bases after light exposure; assay type: cell-based; settings: UVA, IR and visible light; creatine included in the compositions
Experimental: as §1, §2

CN(CC(=O)O)C(=N)N [creatine, Creatine]
effect on the DNA repair of CPD damage induced by light [1]: boosting effect
effect on the DNA repair of oxidative DNA damage induced by light [2]: boosting effect
